This is an account of results in patent US20240090503A1, “FUNGICIDAL OXADIAZOLES AND THEIR MIXTURES” (FMC CORPORATION, priority 2020, published 2024).

Read-outs that look alike come from different tables or passages of the source. Marks after values point to notes of the source that are not given here.

Common to all, as to format: in vivo
In experiment [1] the test system is Phakopsora pachyrhizi (the causal agent of Asian soybean rust). In words: Test E: compounds alone and mixtures sprayed on soybean seedlings, Asian soybean rust, observed and Colby-expected disease control. The arrangement: key to Test E Obsd: 100 = 100% disease control, 0 = no disease control. As to conditions: for pest or weed control at 161.74 ppm: 161.740 ppm. The text has this: The general protocol for preparing test compositions for TEST E was as follows: Compound 316, Compound 376, Compound 225, Compound 229, Compound 257, Compound 394, Compound 506, Compound 507, Compound 508, Compound 509, Compound 511, Compound 512, methyl N-[[5-[1-[2,6-difluoro-4-(1-methylethyl)phenyl]-1H-pyrazol-3-yl]-2-methylphenyl]methyl]carbamate (b54.11a), methyl N-[[5-[l-(4-cyclopropyl-2,6-difluorophenyl)-1H-pyrazol-3-yl]-2-methylphenyl]methyl]carbamate (b54.11d), ethyl 1-[[4-[[(1Z)-2-ethoxy-3,3,3-trifluoro-1-propen-1-yl]oxy]phenyl]methyl]-1H-pyrazole-4-carboxylate (b54.12a), ethyl 1-[[4-[[2-(trifluoromethyl)-1,3-dioxolan-2-yl]methoxy]phenyl]methyl]-1H-pyrazole-4-carboxylate (b54.13a), azoxystrobin, benzovindiflupyr, bixafen, chlorothalonil, cyproconazole, epoxiconazole, fenpropidin, fenpropimorph, fluindapyr, flutriafol, fluxapyroxad, inpyrfluxam, metominostrobin, picoxystrobin, prothioconazole, pydiflumetofen, pyraclostrobin, tebuconazole and trifloxystrobin were obtained as unformulated, technical-grade materials. Copper hydroxide and mancozeb was obtained as a formulated product marketed under the trademarks KOCIDE 3000 and MANZATE, respectively. Unformulated materials were first dissolved in acetone and then suspended at the desired concentration (in ppm) in acetone and purified water (50/50 mixture by volume) containing 250 ppm of the surfactant Trem® 014 (polyhydric alcohol esters). Formulated materials were dispersed in sufficient water to give the desired concentration, and neither organic solvent nor surfactant was added to the suspension. The resulting test mixtures were then used in TEST E. The tests were run on four individual plants and the results reported as the mean average of the four plants.
The presence of a synergistic effect between two active ingredients can be established with the aid of the Colby equation (see Colby, S. R. “Calculating Synergistic and Antagonistic Responses of Herbicide Combinations”, Weeds, (1967), 15, 20-22):
Using the method of Colby, the presence of a synergistic interaction between two active ingredients is established by first calculating the predicted activity, p, of the mixture based on activities of the two components applied alone. If p is lower than the experimentally established effect, synergism has occurred. In the equation above, A is the fungicidal activity in percentage control of one component applied alone at rate x. The B term is the fungicidal activity in percentage control of the second component applied at rate y. The equation estimates p, the expected fungicidal activity of the mixture of A at rate x with B at rate y if their effects are strictly additive and no interaction has occurred.
The test mixture was sprayed to the point of run-off on soybean seedlings. The following day the seedlings were inoculated with a spore suspension of Phakopsora pachyrhizi (the causal agent of Asian soybean rust) and incubated in a saturated atmosphere at 22° C. for 24 h and then moved to a growth chamber at 22° C. for 8 days, after which time visual disease ratings were made.
Results for Test E are given below in Tables A-1 through K-2. Each table corresponds to a set of evaluations performed together at the same time. In each table, a rating of 100 indicates 100% disease control and a rating of 0 indicates no disease control (relative to the controls). Columns labeled “Obsd” indicate the average of results observed from test run on four individual plants. Columns labeled “Exp” indicate the expected value for each treatment mixture using the Colby equation, as described above.

In experiment [2] the test system is Puccinia recondita f. sp. tritici (the causal agent of wheat leaf rust). In words: Test C: preventive spray on wheat seedlings, wheat leaf rust, visual disease rating. Particulars: wheat seedlings, 100 = 100% disease control, 0 = no control. The procedure, abridged:
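Wheat seedlings sprayed to run-off with compound in acetone/water (50/50) with 250 ppm PEG400, then inoculated with spores the following day. After 24 h saturated humidity at 20° C. and 6 days in growth chamber at 20° C., disease rated visually as % control relative to untreated controls.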

Experiment [3] concerns Zymoseptoria tritici (the causal agent of wheat leaf blotch). Briefly: Test B: preventive spray on wheat seedlings, wheat leaf blotch, visual disease rating. As to conditions: wheat seedlings, 100 = 100% disease control. In a few lines: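 This is a preventive test: spray application preceded Zymoseptoria tritici spore inoculation by one day. Test suspensions were in acetone/water with 250 ppm PEG400 surfactant, at the listed ppm rate. After 48 h saturated humidity at 24° C and 17 days at 20° C, visual ratings scored control from 0 to 100%.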

The test system of experiment [4] is Phakopsora pachyrhizi (the causal agent of Asian soybean rust). Briefly: Test A: preventive spray on soybean seedlings, Asian soybean rust, visual disease rating. As to conditions: soybean seedlings, 100 = 100% disease control, 0 = no control. In a few lines: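 Compound in acetone/water (50/50) with 250 ppm PEG400 sprayed to run-off on soybean seedlings; inoculated next day with Phakopsora pachyrhizi spores. Held 24 h at 22° C in saturated atmosphere, then 8 days in a 22° C growth chamber before visual rating as % disease control relative to controls.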

The mark [5] stands for this setting: Table B-1, component (b) alone: bixafen 11.327, fluxapyroxad 2.757, fluindapyr 8.820 ppm.
Setting [6] is: Table B-1, component (b) alone: bixafen 19.525, fluxapyroxad 4.748, fluindapyr 15.230 ppm.
The mark [7] stands for this setting: Table B-2, component (b) alone: bixafen 11.327, fluxapyroxad 2.757, fluindapyr 8.820 ppm.
The mark [8] stands for this setting: Table B-2, component (b) alone: bixafen 19.525, fluxapyroxad 4.748, fluindapyr 15.230 ppm.
Where [9] appears, read: Phakopsora pachyrhizi, applied alone, read-out: Test E Obsd.
[10] abbreviates: Phakopsora pachyrhizi, fenpropidin alone, read-out: Test E Obsd.

Consider `Cn1cc(C(=O)Nc2cccc3c2[C@@H]2CC[C@H]3C2=C(Cl)Cl)c(C(F)F)n1` (racemic) [benzovindiflupyr, reference compound], for which the “Test E Obsd (disease control rating)” value worked out at 67% in experiment [1] (Table F-1, component (b) alone: benzovindiflupyr 0.606, prothioconazole 10.165, chlorothalonil 138.129 ppm); 67% in experiment [1] (Table F-1, component (b) alone: benzovindiflupyr 0.980, prothioconazole 16.339, chlorothalonil 222.081 ppm); 67% in experiment [1] (Table F-2, component (b) alone: benzovindiflupyr 0.606, prothioconazole 10.165, chlorothalonil 138.129 ppm); 67% in experiment [1] (Table F-2, component (b) alone: benzovindiflupyr 0.980, prothioconazole 16.339, chlorothalonil 222.081 ppm). Further, the “Test E Obsd” value worked out at 51 in experiment [1] (applied alone, 0.606 ppm) and 68 in experiment [1] (applied alone, 0.980 ppm).
Consider `CO/C=C(/C(=O)OC)c1ccccc1Oc1cc(Oc2ccccc2C#N)ncn1` [azoxystrobin, reference compound], for which the “Test E Obsd (disease control rating)” value in experiment [1] (Table D-1, component (b) alone: cyproconazole 37.333, azoxystrobin 95.873, trifloxystrobin 20.511 ppm) came out at 70%; in experiment [1] (Table D-1, component (b) alone: cyproconazole 64.883, azoxystrobin 169.226, trifloxystrobin 35.310 ppm), 88%; in experiment [1] (Table D-2, component (b) alone: cyproconazole 37.333, azoxystrobin 95.873, trifloxystrobin 20.511 ppm), 70%; in experiment [1] (Table D-2, component (b) alone: cyproconazole 64.883, azoxystrobin 169.226, trifloxystrobin 35.310 ppm), 88%.
With `Cn1cc(C(=O)Nc2ccc(F)cc2-c2ccc(Cl)c(Cl)c2)c(C(F)F)n1` [bixafen, reference compound], the “Test E Obsd (disease control rating)” value in experiment [1] (setting [5]) turned out to be 54%; in experiment [1] (setting [6]), 55%; in experiment [1] (setting [7]), 54%; in experiment [1] (setting [8]) it was 55%.
On to `N#Cc1c(Cl)c(Cl)c(Cl)c(C#N)c1Cl` [chlorothalonil, reference compound], for which the pest or weed control at 138.129 ppm in experiment [1] (Phakopsora pachyrhizi, applied alone, 138.129 ppm, read-out: Test E Obsd) came out at 76%. The pest or weed control at 222.081 ppm in experiment [1] (Phakopsora pachyrhizi, applied alone, 222.081 ppm, read-out: Test E Obsd) stood at 88%.
For the compound `N#CCNC(=O)c1csc(COc2ccc(-c3noc(C(F)(F)F)n3)cc2)n1` [compound 473], in experiment [2] (10 ppm test suspension), the “Test C disease control rating” value is 89%. Moreover, the “Test B disease control rating” value in experiment [3] (250 ppm test suspension) is reported as 28* %. In addition, in experiment [4] (10 ppm test suspension), the “Test A disease control rating” value is reported as 94%.
Consider `O=C(c1csc(Cc2ccc(-c3noc(C(F)(F)F)n3)cc2)n1)N1CCOCC1` [compound 487], for which, in experiment [2] (10 ppm test suspension), the “Test C disease control rating” value amounted to 100%. Further, in experiment [3] (100 ppm test suspension (double asterisk)), the “Test B disease control rating” value is 98** %. The “Test A disease control rating” value in experiment [4] (10 ppm test suspension) is 100%.
For `CCNC(=O)c1csc(Cc2ccc(-c3noc(C(F)(F)F)n3)cc2)n1` [compound 488], the “Test C disease control rating” value in experiment [2] (10 ppm test suspension) amounted to 100%. For the same compound, in experiment [3] (250 ppm test suspension), the “Test B disease control rating” value is listed as 99* %. Moreover, the “Test A disease control rating” value in experiment [4] (10 ppm test suspension) worked out at 100%.
For `COCC(COC)NC(=O)c1csc(Cc2ccc(-c3noc(C(F)(F)F)n3)cc2)n1` [compound 489], the “Test C disease control rating” value in experiment [2] (10 ppm test suspension) was determined as 99%. Further, the “Test B disease control rating” value in experiment [3] (250 ppm test suspension) is 92* %. The “Test A disease control rating” value in experiment [4] (10 ppm test suspension) stood at 100%.
With `CON=C(CCl)COC(=O)c1cnn(Cc2ccc(-c3noc(C(F)(F)F)n3)cc2)c1` [compound 494], the “Test C disease control rating” value in experiment [2] (10 ppm test suspension) came out at 0%. For the same compound, the “Test B disease control rating” value in experiment [3] (250 ppm test suspension) is recorded as 47* %. The “Test A disease control rating” value in experiment [4] (10 ppm test suspension) is listed as 100%.
Take `O=C(CCl)COC(=O)c1cnn(Cc2ccc(-c3noc(C(F)(F)F)n3)cc2)c1` [compound 495]: the “Test C disease control rating” value in experiment [2] (10 ppm test suspension) worked out at 0%. Moreover, the “Test B disease control rating” value in experiment [3] (250 ppm test suspension) is recorded as 43* %. For the same compound, the “Test A disease control rating” value in experiment [4] (10 ppm test suspension) came to 100%.
For `CC1(C)OCC(COC(=O)c2cnn(Cc3ccc(-c4noc(C(F)(F)F)n4)cc3)c2)O1` (stereo not shown) [compound 496] the same measures were 0%, 48* % and 100%.
As to `OC(c1ccc(-c2noc(C(F)(F)F)n2)cc1)c1cccc(F)c1` (stereo not shown) [compound 498], the “Test C disease control rating” value in experiment [2] (10 ppm test suspension) stood at 0%. For the same compound, the “Test B disease control rating” value in experiment [3] (250 ppm test suspension) is 43* %. Besides, in experiment [4] (10 ppm test suspension), the “Test A disease control rating” value was determined as 100%.
Consider `OC(c1ccc(-c2noc(C(F)(F)F)n2)cc1)c1cccc(Cl)c1` (stereo not shown) [compound 499], for which the “Test C disease control rating” value in experiment [2] (250 ppm test suspension) came to 100%. The “Test B disease control rating” value in experiment [3] (250 ppm test suspension) is listed as 48* %. Further, the “Test A disease control rating” value in experiment [4] (250 ppm test suspension) was 100%.
As to `OC(c1ccc(F)cc1)c1ccc(-c2noc(C(F)(F)F)n2)cc1` (stereo not shown) [compound 500], the “Test C disease control rating” value in experiment [2] (250 ppm test suspension) was 100%. Besides, in experiment [3] (250 ppm test suspension), the “Test B disease control rating” value was 5* %. In addition, the “Test A disease control rating” value in experiment [4] (250 ppm test suspension) is given as 100%.
In the case of `CN(C)C(=O)C1=NOC(COc2cccc(-c3noc(C(F)(F)F)n3)c2)C1` (stereo not shown) [compound 502], the pest or weed control at 250 ppm in experiment [2] (Puccinia recondita, 168 h, 250 ppm test suspension) was determined as 100%; in experiment [3] (Zymoseptoria tritici, 456 h, 250 ppm test suspension), 62%; in experiment [4] (Phakopsora pachyrhizi, 216 h, 250 ppm test suspension) it was 100%.
For `CC(Cc1ccc(C(C)(C)C)cc1)CN1CCCCC1` (stereo not shown) [fenpropidin, reference compound], the pest or weed control at 78.393 ppm in experiment [1] (setting [9]) and in experiment [1] (setting [10]) was 0% each time. For the same compound, the pest or weed control at 161.74 ppm in experiment [1] (setting [9]) and in experiment [1] (setting [10]) was 52% in each case.
For `CC1CC(C)(C)c2c(F)ccc(NC(=O)c3cn(C)nc3C(F)F)c21` (stereo not shown) [fluindapyr, reference compound], the “Test E Obsd (disease control rating)” value in experiment [1] (setting [5]) came out at 61%; in experiment [1] (setting [6]) it was 79%; in experiment [1] (setting [7]), 61%; in experiment [1] (setting [8]), 79%.
In the case of `Cn1cc(C(=O)Nc2ccccc2-c2cc(F)c(F)c(F)c2)c(C(F)F)n1` [fluxapyroxad, reference compound], the “Test E Obsd (disease control rating)” value is 19% in experiment [1] (setting [5]), 52% in experiment [1] (setting [6]), 19% in experiment [1] (setting [7]) and 52% in experiment [1] (setting [8]).
